Patent US5871779A, “Treatment of arthropathies with vanadate compounds or analogues thereof” (Mount Sinai Hospital Corporation, priority 1996, dated 1999)

Tests used:
collagenase = assay: synovial collagenase expression in arthritic rats (Northern blot); format: in vivo, rat; conditions: BMOV-treated (with NAC) vs control, Day 18
Procedure: Collagenase, stromelysin, and IL-1 expression were quantitated in each group of rats. Selected rats in each group were sacrificed on Day 18 post arthritis onset to measure collagenase, stromelysin, and IL-1 expression via the Northern Blot. Synovial biopsies were pooled and homogenized in the presence of RNASTAT-60 (Tel Test). Total RNA was isolated following the manufacturer's instructions, washed in 70% ethanol, and dissolved in 30 μl RNA loading buffer (Sigma) containing ethidium bromide. The RNA was electrophoresed on a 1% agarose formaldehyde gel and transferred to 0.45 μm nylon filter membrane (Magna NT, MSL). The blot was prehybridised in 50% formamide, 5×SSPE, 5×dendhardts, 1% SDS, 200 μg/ml ssDNA and 50 μg/ml tRNA. The rat collagenase cDNA (bp. 1-550 of locus RATCOL genbank accession M60616), rat stromelysin (ATCC, Rockville, Md.), or rat […] (genbank accession D00403) were labeled by random primed incorporation of ^32 P-dATP (Random Primed Labeling Kit, Boerhinger Manheim). After overnight hybridization at 42° C. overnight, the blot was washed in 1×SSPE at 37° C. and exposed to Kodak X-Ornat AP film for 24 hours at -70° C. with an intensifying screen. The blot was stripped with 50% formamide in 2×SSPE, checked for residual counts and reprobed. The resulting autoradiographs were digitized and analyzed with NIH image software and normalized for RNA loading.

[1] = tolerability of BMOV and NAC in arthritic rats; format: in vivo
Procedure: Rats with definite arthritis on Day 10 post immunization were randomized into two groups. Control rats (n=8) received only NAC at a dose of 100 mg/kg/day s.c. NAC was prepared as a 3% aqueous solution. The experimental group (n=9) received NAC at 100 mg/kg/day s.c., as well as BMOV subcutaneously at 10 mg/kg/day. BMOV was solubilized in a 5% dextrose solution at 50° C.

LS180 = assay: MTT cytotoxicity assay, LS180; format: cell-based, human; conditions: LS180, 72 hours
Procedure: The relative cytotoxicity of various compounds on tumor cell lines was investigated as follows. Cytotoxicity was measured by the MTT microculture tetrazolium colorimetric assay for all cell lines. The relative cytotoxicity of Na3 VO4 and VOSO4 was investigated using the following tumor cell lines: P388(WT) murine leukemia, P388 (ADR) murine leukemia, Lewis murine lung, MCF7 (WT) human breast, […] human lung, K562 human erythroleukemia, A431 human epidermal, LS180 human colon and SK-OV-3 human ovarian. The relative cytotoxicity of doxorubicin, Na3 VO4 and VOSO4 was investigated using the following tumor cell lines: P388(WT) murine leukemia, P388 (ADR) murine leukemia, MCF7(WT) human breast and MCF7 (ADR) human breast. The relative cytotoxicity of BMOV, BEOV and naglivan was investigated using the following tumor cell lines: P388(WT) murine leukemia, P388 (ADR) murine leukemia, Lewis murine lung, H460 human lung, K562 human erythroleukemia, and SK-OV-3 human ovarian.
The cells were plated (number of cells/well was different from cell line to cell depending on the dividing rate) in a 96-well microculture plate 24 hours prior to the delivery of the vanadium compounds. Serial concentrations of solutions of the test compounds (0.05-100 μM) were delivered to the corresponding wells. […] The absorbance of each well was read with a Titertek Multiskan (310C) spectrophotometer at 570 nm. […]

tumor cell lines = assay: cell death of proliferating tumor cell lines; format: cell-based
Procedure: Fos and jun activity are also required for cellular proliferation in many tumor cell lines. Accordingly, the effect of orthovanadate on adherent cells and cell suspensions were examined. MDAY-D2 (a mouse lymphoid cell line grown in suspension) and HTB14 cells (an adherent human primary astrocytoma cell line) were incubated in media containing 0-50 μM orthovanadate for 48 hours. The cells were harvested and the number of viable cells determined.

[2] = toxicity of orthovanadate by route of administration; format: in vivo, mice
From the text: However, subcutaneous injections of up to 500 μgms orthovanadate is tolerated by the animals. Slow administration of the orthovanadate would decrease toxicity and the animals may tolerate higher doses.

fos = fos / c-fos mRNA expression in chondrocytes (Northern blot); format: cell-based, bovine; conditions: 100 μM
Procedure, shortened: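 Bovine articular chondrocytes incubated 1 h with IL-1, PMA or AA (3 μM), or treated with IL 1 ± DPI, or with H2O2 for 30, 60 and 90 min. Total RNA run on formaldehyde agarose gels and probed by Northern blot with c-fos, c-jun or collagenase cDNA.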

Row | SMILES | percent inhibition of collagenase gene expression (collagenase) | diarrhea ([1]; BMOV 10 mg/kg/day) | diarrhea ([1]; BMOV 15 mg/kg/day from Day 11) | IC50 (LS180) | cell death (tumor cell lines; 0-50 μM) | cell death complete (tumor cell lines; within 3 days of continuous treatment) | toxicity, oral administration ([2]; 0.5 mg/ml oral) | toxicity, intraperitoneal administration ([2]; high doses i.p.) | tolerated subcutaneous injection ([2]; subcutaneous) | inhibition of IL 1, PMA and AA induced c-fos expression (fos)
1 | Cc1occc(=O)c1[O-].Cc1occc(=O)c1[O-].[O]=[V+2] [BMOV, bis(methylmaltolato) oxovanadium (IV)] | 78% | not observed | minor diarrhea |  |  |  |  |  |  | 
2 | [Na+].[Na+].[Na+].[O]=[V]([O-])([O-])[O-] [orthovanadate, sodium orthovanadate] |  |  |  | 16.4 µM | concentration dependent increase in cell death | over 98% | gastric toxicity | toxic to the animals | up to 500 μgms | completely inhibited
